Among the data in paper PMC10302398, “Mechanistic Insights into the Antibiofilm Mode of Action of Ellagic Acid” (Pharmaceutics, 2023) are Kd and IC50 values, retold here.

As a reminder, the Kd is the equilibrium constant for the complex coming apart. By IC50 is commonly meant the concentration needed to halve the response being measured. Read a high IC50 as lower potency.

The target in experiment [1] is T1, WrbA (NADH:quinone oxidoreductase WrbA; WrbAJW) (Escherichia coli, UniProt P0A8G6). Description: MST (Kd […]); also SPR (Kd […]) and NADH:DCPIP oxidoreductase inhibition (IC50 […]). The experiment is classed as binding.
T1 sequence (P0A8G6 2-198): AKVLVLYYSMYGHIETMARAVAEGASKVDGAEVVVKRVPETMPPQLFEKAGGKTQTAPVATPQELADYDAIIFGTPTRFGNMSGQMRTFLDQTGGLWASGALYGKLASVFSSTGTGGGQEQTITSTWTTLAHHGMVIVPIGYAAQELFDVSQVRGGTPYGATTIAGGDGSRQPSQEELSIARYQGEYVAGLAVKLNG
Experiment [2] deals with T1, WrbA (NADH:quinone oxidoreductase WrbA; WrbAJW). Description: NADH:DCPIP oxidoreductase activity assay of purified WrbAJW. The experiment is classed as biochemical.

`O=c1oc2c(O)c(O)cc3c(=O)oc4c(O)c(O)cc1c4c23` [EA, ellagic acid]: the dissociation constant (Kd) in experiment [1] turned out to be 0.0015 ± 0.0004 mM.

In the case of `O=C(O)c1ccccc1O` [SA, salicylic acid], the half-inhibitory concentration (IC50) in experiment [2] was 7.85 ± 2.65 mM.
